# Values joined by “and” are separate entries in the source; they are usually repeats but may differ in a detail not shown here. Equal entries are not always repeated. After the bases stand the sugars from the 5' end (letter, count) and the backbone: PS all phosphorothioate, else s phosphorothioate and o phosphodiester by linkage. Methylation of C is not given here. e = 2'-O-(2-methoxyethyl) (MOE); k = constrained ethyl (cEt); d = 2'-deoxy (DNA)
# Biological target: IRF4
# Settings: ASO
sequence,measurement,setting,value
"CGGCTCCTCCTCCTTT (sugars k3 d10 k3, PS)",target mRNA inhibition,"SK-MEL-28, 4 µM",11%
"TGCATAGTGATGAGAT (sugars k3 d10 k3, PS)",target mRNA inhibition,"SK-MEL-28, 4 µM",37%
"TTGGAAAGACAAGTGC (sugars k3 d10 k3, PS)",target mRNA inhibition,"SK-MEL-28, 4 µM",15%
"ATGGATAGTTTCTCAT (sugars k3 d10 k3, PS)",target mRNA inhibition,"SK-MEL-28, 4 µM",25%
"CCACGGACGGAGGCGG (sugars k3 d10 k3, PS)",target mRNA inhibition,"MM.1R, 1 µM",-6%
"GTAAGGGCTGCTCATT (sugars k3 d10 k3, PS)",target mRNA inhibition,"SK-MEL-28, 4 µM",52%
"CTAGTTTAAGGGTTAC (sugars k3 d10 k3, PS)",target mRNA inhibition,"SK-MEL-28, 4 µM",27%
"CACTGGCATTGAGACG (sugars k3 d10 k3, PS)",target mRNA inhibition,"SK-MEL-28, 4 µM",69% and 76%
"CAGCAAAGAGGGTCAC (sugars k3 d10 k3, PS)",target mRNA inhibition,"SK-MEL-28, 4 µM",61%
"CGAGGTTGCCGAGATA (sugars k3 d10 k3, PS)",target mRNA inhibition,"MM.1R, 1 µM",66% and 60%
"TCAGTTTGTGAAGCAT (sugars kkdddddddddkekek, PS)",target mRNA inhibition,"MM.1R, 0.074 µM",9%
same,target mRNA inhibition,"MM.1R, 0.222 µM",27%
same,target mRNA inhibition,"MM.1R, 0.666 µM",46%
same,target mRNA inhibition,"MM.1R, 1 µM",58%
same,target mRNA inhibition,"MM.1R, 2 µM",73%
"TTTATGGACCACGCAG (sugars k3 d10 k3, PS)",target mRNA inhibition,"SK-MEL-28, 4 µM",38%
"TACTTAAGCAAGTGGA (sugars k3 d10 k3, PS)",target mRNA inhibition,"SK-MEL-28, 4 µM",75% and 71%
"AGATAGGAAGCACTGG (sugars k3 d10 k3, PS)",target mRNA inhibition,"SK-MEL-28, 4 µM",46%
"AACTGCAGCACCGTGG (sugars k3 d10 k3, PS)",target mRNA inhibition,"SK-MEL-28, 4 µM",45%
"TTTTATATATGACGAC (sugars k3 d10 k3, PS)",target mRNA inhibition,"SK-MEL-28, 4 µM",34%
"AGTTCATGTAAAGTCT (sugars kkdddddddddkekek, PS)",target mRNA inhibition,"MM.1R, 1 µM",42% and 31%
"ACCACGCCCCTCTCCA (sugars k3 d10 k3, PS)",target mRNA inhibition,"SK-MEL-28, 4 µM",9%
"GGGTTAAATATTCTTC (sugars k3 d10 k3, PS)",target mRNA inhibition,"SK-MEL-28, 4 µM",52%
"ACATTGGTACGGGATT (sugars k3 d10 k3, PS)",target mRNA inhibition,"MM.1R, 1 µM",2%
"TGGCAACCATTTTCAC (sugars k3 d10 k3, PS)",target mRNA inhibition,"SK-MEL-28, 4 µM",7%
"AACCGCTGGCAGGTGG (sugars k3 d10 k3, PS)",target mRNA inhibition,"SK-MEL-28, 4 µM",40%
"GATTTCCGGGTGTGGC (sugars k3 d10 k3, PS)",target mRNA inhibition,"MM.1R, 0.0625 µM",14%
same,target mRNA inhibition,"MM.1R, 0.25 µM",-11%
same,target mRNA inhibition,"MM.1R, 4 µM",33%
"CGCTCATGCCGAACTC (sugars k3 d10 k3, PS)",target mRNA inhibition,"SK-MEL-28, 4 µM",11%
"AATGTCACGCCCGCAA (sugars k3 d10 k3, PS)",target mRNA inhibition,"SK-MEL-28, 4 µM",19%
"TAGCATCAGAGCTAGA (sugars k3 d10 k3, PS)",target mRNA inhibition,"SK-MEL-28, 4 µM",49%
"AGTCATCACTCTAGTC (sugars k3 d10 k3, PS)",target mRNA inhibition,"SK-MEL-28, 4 µM",53%
"CTGTTAAGTCCCATCT (sugars k3 d10 k3, PS)",target mRNA inhibition,"SK-MEL-28, 4 µM",54%
"GATAGGAAGCACTGGC (sugars k3 d10 k3, PS)",target mRNA inhibition,"SK-MEL-28, 4 µM",62%
"ATTAAAGGGTAAGCAC (sugars k3 d10 k3, PS)",target mRNA inhibition,"SK-MEL-28, 4 µM",32%
"AGTGACCACGAGGCCC (sugars k3 d10 k3, PS)",target mRNA inhibition,"SK-MEL-28, 4 µM",15%
"GTTCACGAAACACAGT (sugars k3 d10 k3, PS)",target mRNA inhibition,"SK-MEL-28, 4 µM",63%
"GGCACATCAATGTTTT (sugars k3 d10 k3, PS)",target mRNA inhibition,"MM.1R, 1 µM",18% and 14%
"TGGTACACCTCTTCAC (sugars k3 d10 k3, PS)",target mRNA inhibition,"SK-MEL-28, 4 µM",32%
"GAGCCTGGGACTCAGG (sugars k3 d10 k3, PS)",target mRNA inhibition,"MM.1R, 0.074 µM",3%
same,target mRNA inhibition,"MM.1R, 0.222 µM",4%
same,target mRNA inhibition,"MM.1R, 0.666 µM",-3%
same,target mRNA inhibition,"MM.1R, 2 µM",7%
same,target mRNA inhibition,"SK-MEL-28, 0.185 µM",7%
same,target mRNA inhibition,"SK-MEL-28, 4 µM",49%
same,target mRNA inhibition,"SK-MEL-28, 5 µM",58%
same,target mRNA inhibition,"SK-MEL-28, 15 µM",87%
"TTACTTCCCTGAGAAA (sugars k3 d10 k3, PS)",target mRNA inhibition,"SK-MEL-28, 4 µM",20%
"AGTGACTTGCATCCAT (sugars k3 d10 k3, PS)",target mRNA inhibition,"MM.1R, 0.0625 µM",10%
same,target mRNA inhibition,"MM.1R, 0.25 µM",28%
same,target mRNA inhibition,"MM.1R, 1 µM",67% and 58%
same,target mRNA inhibition,"MM.1R, 4 µM",78%
"AACGGAAGTTTACACT (sugars k3 d10 k3, PS)",target mRNA inhibition,"SK-MEL-28, 4 µM",59%
"GTGATGTCAGGTTTTC (sugars kkdddddddddkekek, PS)",target mRNA inhibition,"MM.1R, 1 µM",40%
"AGCAGAACGAGGTAAA (sugars k3 d10 k3, PS)",target mRNA inhibition,"SK-MEL-28, 4 µM",70%
"CTCCACAGCAAGGCCT (sugars k3 d10 k3, PS)",target mRNA inhibition,"SK-MEL-28, 4 µM",51%
"AAACAGAGACGCGGTG (sugars k3 d10 k3, PS)",target mRNA inhibition,"SK-MEL-28, 4 µM",18%
"CCACGAAGGGCAGTGC (sugars k3 d10 k3, PS)",target mRNA inhibition,"MM.1R, 1 µM",0%
"ACTAGCAGGGCACGCT (sugars k3 d10 k3, PS)",target mRNA inhibition,"SK-MEL-28, 4 µM",38%
"ATGTTAGCCAATTCCT (sugars k3 d10 k3, PS)",target mRNA inhibition,"MM.1R, 1 µM",30% and 33%
"CGCCGGACCCCGGAGC (sugars k3 d10 k3, PS)",target mRNA inhibition,"SK-MEL-28, 4 µM",9%
"ACTAACTGGCTTCCAG (sugars k3 d10 k3, PS)",target mRNA inhibition,"SK-MEL-28, 4 µM",31%
"TAAGAGGCGACTGCTG (sugars k3 d10 k3, PS)",target mRNA inhibition,"SK-MEL-28, 4 µM",-45%
"CTCTCCAGGTGGCTCA (sugars k4 d8 k4, PS)",target mRNA inhibition,"SK-MEL-28, 4 µM",12%
"TGTGTATTACTCTTAG (sugars kkdddddddddkdkdk, PS)",target mRNA inhibition,"H929, 0.04 µM",40% and 47%
same,target mRNA inhibition,"KMS11, 0.2 µM",62% and 74%
same,target mRNA inhibition,"MM.1R, 0.0625 µM",54%
same,target mRNA inhibition,"MM.1R, 0.25 µM",62%
same,target mRNA inhibition,"MM.1R, 1 µM",81% and 71% and 72%
same,target mRNA inhibition,"MM.1R, 4 µM",91%
"GGATAGATCTGTGGTA (sugars k3 d10 k3, PS)",target mRNA inhibition,"SK-MEL-28, 4 µM",49%
"TACAAGCAGTCATCAC (sugars k3 d10 k3, PS)",target mRNA inhibition,"SK-MEL-28, 4 µM",29%
"ACGACAGCTGCGGAGC (sugars k3 d10 k3, PS)",target mRNA inhibition,"SK-MEL-28, 4 µM",27%
"CGCTGAATTGTCATGA (sugars k3 d10 k3, PS)",target mRNA inhibition,"MM.1R, 1 µM",-1%
"AGGAAGCCGTTCCTTT (sugars k3 d10 k3, PS)",target mRNA inhibition,"SK-MEL-28, 4 µM",42%
"CTCCACTGTTAAAGCA (sugars k3 d10 k3, PS)",target mRNA inhibition,"SK-MEL-28, 4 µM",52%
"AGACCAATTTATGCCA (sugars k3 d10 k3, PS)",target mRNA inhibition,"MM.1R, 1 µM",7%
"TATAGTAGGTAAGATC (sugars k3 d10 k3, PS)",target mRNA inhibition,"SK-MEL-28, 4 µM",13%
"CATAAAAGGTTCCTGT (sugars k3 d10 k3, PS)",target mRNA inhibition,"SK-MEL-28, 4 µM",9%
"CCTCAGTTTGTGAAGC (sugars kkkddddddddkekek, PS)",target mRNA inhibition,"MM.1R, 1 µM",3%
"CTGCTTGAGGTTTTCC (sugars kdddddddddkekeke, PS)",target mRNA inhibition,"MM.1R, 1 µM",20%
"CAGGAGAGCCCCTACC (sugars k3 d10 k3, PS)",target mRNA inhibition,"MM.1R, 1 µM",-8%
"AGCAAGTCGGTCCACA (sugars k3 d10 k3, PS)",target mRNA inhibition,"SK-MEL-28, 4 µM",54%
"CACTAAGCTTGATAAA (sugars k3 d10 k3, PS)",target mRNA inhibition,"SK-MEL-28, 4 µM",-11%
"GAAGTTTACACTGGAT (sugars kkddddddddddkeke, PS)",target mRNA inhibition,"MM.1R, 1 µM",46%
"GCATTTTATCATCCGA (sugars kkkddddddddkekek, PS)",target mRNA inhibition,"MM.1R, 1 µM",45%
"AGCTGAGGGCAGCGGT (sugars k3 d10 k3, PS)",target mRNA inhibition,"SK-MEL-28, 4 µM",-7%
"AAGTGTCTAAAGTCCC (sugars kddddddddddkekek, PS)",target mRNA inhibition,"MM.1R, 1 µM",-1%
"AGTGATGTCAGGTTTT (sugars e1 k2 d9 k2 e2, PS)",target mRNA inhibition,"MM.1R, 1 µM",39%
"TGAGATGCGGAGGTTC (sugars k3 d10 k3, PS)",target mRNA inhibition,"MM.1R, 1 µM",33% and 27%
"GCAGTTCTTAATATCA (sugars k3 d10 k3, PS)",target mRNA inhibition,"SK-MEL-28, 4 µM",60%
"CAGTTGTAAATGAGTC (sugars kkdddddddddkdkdk, PS)",target mRNA inhibition,"MM.1R, 1 µM",46%
"CAGAAGGGCAACAGTT (sugars k3 d10 k3, PS)",target mRNA inhibition,"SK-MEL-28, 4 µM",38%
